Assay results from US20060100168A1, “Method of treating cancer using adenosine and its analogs” (The Trustee of Boston University, priority 2002, published 2006).
“Also recorded” adds a separate entry of the source.

Experiments:
Format in all cases: cell-based, human
[1] = tested on: MCF-7 cells; experiment: Anchorage-dependent growth assay (viable cell count, Trypan Blue); details: MCF-7
Description: Anchorage-dependent growth assay: Cells were plated into 6-well plates and grown overnight before treatments. The seeding concentration of MCF-7 cells was 2×10^5/well, which was determined during preliminary experiments as not allowing the cells to reach confluency within 3 days. Cells were treated either with vehicle or ligands, as indicated. Cells were detached by incubation with trypsin (Invitrogen, Carlsbad, Calif.) and counted with a hemacytometer before or after treatment.

[2] = tested on: MCF-7 cells; experiment: Apoptosis by propidium iodide staining and flow cytometry (sub-diploid events); details: 100 μM
Description: (§1) Flow Cytometry and Apoptosis Analysis: Cells were detached from tissue culture plates by trypsin treatment. Cells were collected by centrifugation at 1200 g for 5 minutes and washed once with PBS. Staining of cells with propidium iodide and analysis on a flow cytometer (FACScan, Becton Dickinson, Research Triangle Park, N.C.) was performed as described before (42). Data were analyzed with CellQuest software (Becton Dickinson, Research Triangle Park, N.C.). The percentage of cells appearing with a ploidy level smaller than a diploid content was calculated as an estimate of cells undergoing apoptosis.

[3] = tested on: HeLa cells; experiment: Anchorage-independent growth (soft agar) assay; details: 100 μM, two weeks
Description: (§2) Anchorage-independent growth (soft agar) assay: Soft agar assay was performed as described (40) with the following modifications. Ligands were added into the bottom and top agar before plating into 6-well plates. Cells were treated with trypsin (Invitrogen, Carlsbad, Calif.) for 5 minutes in a 37° C. incubator and pipetted several times so that most cells were in single cell forms. Cells were counted with a hemacytometer (Hausser Scientific/VWR, So. Plainfield, N.J.), and 10,000 cells were mixed with top agar and plated into each well. After the top agar had solidified, two ml of medium containing the same treatment was added on top of the agar. This covering medium was changed every two days during culture. After two weeks of culture, each well was counted for the number of colonies formed on an Olympus IX70 microscope under 40× optical amplification. A cell colony was defined as any cluster of cells that contain more than 3 cells. The average of counts from 3 random optical fields for each well was taken as the colony number and analyzed. Each treatment was performed in triplicates. The averages and standard deviations shown in the figures were calculated based on triplicate experiments.

[4] = tested on: Hs578T cells; experiment: Anchorage-independent growth (soft agar) assay; details: 100 μM, two weeks
Description: as §2

[5] = tested on: MCF-7 cells; experiment: Anchorage-independent growth (soft agar) assay
Description: as §2

[6] = tested on: T47D cells; experiment: Anchorage-independent growth (soft agar) assay; details: 100 μM, two weeks
Description: as §2

[7] = tested on: ZR-75 cells; experiment: Anchorage-independent growth (soft agar) assay; details: ZR-75 soft agar; 100 μM; two weeks
Description: as §2

[8] = tested on: T47D cells; experiment: Anchorage-dependent growth assay; details: 100 μM, three days
[9] = tested on: Hs578T cells; experiment: Apoptosis by propidium iodide staining and flow cytometry; details: 100 μM, two days
Description: as §1

[10] = tested on: cyclin A, cyclin B1, cyclin E, p27; experiment: Western blot of cyclins and Cdk inhibitor in MCF-7 cells; details: 100 μM
Description: (§3) Western Blot Analysis: Cells were washed three times in cold 1×PBS, and collected by scraping on ice. Western blot analysis was performed as we described before with the chemiluminescence method (41). Antibodies used in this study were: ERα (NeoMarkers, Ab-15), Cyclin A (Santa Cruz Biotech, H-432), Cyclin B1 (Santa Cruz Biotech, H-433), Cyclin E (Upstate Biotech, HE-12), p27 (Santa Cruz Biotech, F-8). ERα antibody was used at 1:100 dilutions. Cyclin A, cyclin B1 and p27 antibodies were used at 1:500 dilutions. Cyclin E antibody was used at 1:1000 dilutions.

[11] = tested on: cyclin levels in HeLa cells; experiment: Western blot of cyclins in HeLa cells; details: data not shown
Description: as §3

[12] = tested on: pS2 mRNA; experiment: Semi-quantitative RT-PCR of pS2 mRNA in MCF-7 cells; details: 100 μM, observed after 8 to 12 hours
Description: Total RNA preparation and Reverse Transcription Polymerase Chain Reaction (RT-PCR): Total RNA from MCF-7 cells was prepared with Trizol (Invitrogen, Carlsbad, Calif.) as described before (41). For reverse transcription, 2 μg of RNA were used in a […] with random primers and M-MLV reverse transcriptase (Invitrogen, Carlsbad, Calif.), following the manufacturer's protocol. To control for possible contamination from genomic DNA in subsequent PCR reactions, control reverse transcription reactions were carried out under identical conditions, only without reverse transcriptase. After reverse transcription, 5% of the product was used in each PCR reaction. For the experiments analyzing A3 adenosine receptor (A3AR) expression, 27 cycles were used in the PCR reactions. Specific primers were designed for human A3AR, which match to two separate exons, according to genomic sequences (from GenBank). Sequences for the sense and antisense A3AR primers are: 5′tccatcatgtccttgctg3′ (SEQ ID NO: 1) and 5′gcacatgacaaccaggg3′ (SEQ ID NO.: 2). In the experiments analyzing estrogen receptor a (ERα) mRNA, semi-quantitative PCR reactions were carried out with 23 cycles for ERα primers and 19 cycles for GAPDH primers (used as a control). The cycle numbers were tested in previous experiments not to produce saturation effects. […]

[13] = tested on: CMV promoter; experiment: Reporter gene assay pCMV-β-Gal in MCF-7 cells; details: MCF-7 transfected with pCMV-β-Gal; 12 hours
Description: Transfections and Reporter Gene Assay: Transient transfection was performed using FuGene6 (Roche, Indianapolis, Ind.) transfection reagent according to manufacturer's protocol. Circular reporter plasmid pERE-Tk-Luc at 10 μg and 10 μg of pCMV-β-Gal (as a measure of efficiency of trasnfection) were transfected with 50 μl of FuGene6. Cells were split into 6 well plates 12 hours after transfection, and incubated overnight in fresh medium. […] Luciferase and β-galactosidase activities were measured as described before (43, 44).

[14] = tested on: Akt (Ser 473); experiment: Akt phosphorylation in MCF-7 cells; details: not shown

## CNC(=O)[C@H]1O[C@@H](n2cnc3c(NCc4cccc(I)c4)ncnc32)[C@H](O)[C@@H]1O [IB-MECA, N^6-(3-iodobenzyl)adenosine-5′-N-methyluronamide]
[1]; 100 μM, three days, trypan blue negative cells
  Cell counts after treatment compared to day 0, in words: decreased only mildly; also recorded: did not show much change in the number of viable cells
[1]; 2 days of treatment, compounds at 100 μM, except adenosine (500 μM) and inosine (1 mM), normalized to vehicle control (set to 1), negative = decrease vs count before treatment, average ± SD, three experiments
  Cell Growth: −0.19 ± 0.06
[2]; two days
  Apoptosis, in words: non significant change
[2]; 2 days of treatment, except adenosine (500 μM) and inosine (1 mM), number of apoptotic cells compared to vehicle control (set to 1), average ± SD
  Apoptosis: 1.12 ± 0.02
[3]
  Colony formation, in words: mild response
[4]
  Colony formation, in words: dramatic decrease in colony formation
[5]; MCF-7
  Concentration at which the cell growth inhibitory effect is observed: higher than 10 μM
[5]; MCF-7 soft agar, different concentrations, two weeks
  Effect on anchorage-independent growth (colony formation), in words: dose-dependent inhibition
[6]
  Colony formation, in words: dramatic decrease in colony formation
[7]
  Colony formation, in words: dramatic decrease in colony formation
[8]
  Cell counts after treatment compared to day 0, in words: affected more severely
[9]
  Apoptosis, in words: substantial apoptosis
[10]
  Cyclin A and B1 levels: downregulated
  Cyclin E levels: elevated
  cdk inhibitor p27 level: sharp increase
[11]
  Cyclin levels: no significant change
[12]
  pS2 mRNA level: reduced
[13]
  CMV promoter activity: did not show any decrease in activity
[14]
  Akt phosphorylation (at Ser 473): induced Akt phosphorylation
